Laboratory results from PMC4102551, “Screening and Characterisation of Antimicrobial Properties of Semisynthetic Betulin Derivatives” (PLoS ONE, 2014).
≈ marks a conversion by molar mass, not a printed value. Read-outs that look alike come from different tables or passages of the source.

Assays:
E. aerogenes ATCC 13048 = assay: Broth microdilution assay, E. aerogenes; type: cell-based, Enterobacter aerogenes; settings: for inhibition at 50 µM: Klebsiella aerogenes, ATCC13048, 24 h, read-out: Inhibitory effect (%) E. aerogenes ATCC 13048
Procedure, shortened: (§1)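 Broth microdilution per CLSI/EUCAST in Mueller Hinton II broth, 5×10^5 cfu/mL, 24 h at 37°C with agitation; growth by absorbance at 620 nm versus controls. Compounds first screened at 50 µM.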

E. coli ATCC 25922 = assay: Broth microdilution assay, E. coli; type: cell-based, Escherichia coli
Procedure, shortened: as §1

E. faecalis ATCC 29212 = assay: Broth microdilution assay, E. faecalis; type: cell-based, Enterococcus faecalis; settings: for Inhibitory effect (%) E. faecalis ATCC 29212 / inhibition at 50 µM: 50 µM, 24 h, inhibition of growth, mean ± SD; for inhibition at 50 µM: ATCC29212, 24 h, read-out: Inhibitory effect (%) E. faecalis ATCC 29212
Procedure, shortened: as §1

P. aeruginosa ATCC 27853 = assay: Broth microdilution assay, P. aeruginosa; type: cell-based, Pseudomonas aeruginosa
Procedure, shortened: as §1

S. aureus ATCC 25923 = assay: Broth microdilution assay, S. aureus; type: cell-based, Staphylococcus aureus; settings: for inhibition at 50 µM: ATCC25923, 24 h
Procedure, shortened: as §1

C. albicans ATCC 90028 = assay: Broth microdilution assay, C. albicans; type: cell-based, Candida albicans
Procedure, shortened: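 Candida albicans ATCC 90028 was grown on Sabouraud Dextrose Agar at 27°C for 16–18 h, then suspended in sterile 0.9% saline. Broth microdilution in clear 96-well plates mixed equal volumes of yeast suspension and diluted sample. Plates were incubated with agitation at 35°C for 48 h. Absorbance at 620 nm was read at 0, 24 and 48 h, and growth inhibition was expressed as a percentage relative to controls.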

in vitro = type: cell-based, human; settings: human
Procedure, shortened: (§2)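 Cytotoxicity read-out: intracellular ATP (CellTiter-Glo luminescence) in Huh-7 hepatoma cells seeded at 20000 cells/well, cultured overnight, then exposed to compounds for 24 h at 37°C in 5% FBS medium. Polymyxin B sulphate (15000 IU/mL) served as positive control.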

Huh-7 cells = assay: in vitro; type: cell-based, human; settings: for Cytotoxicity (%) Huh-7 cells: 50 µM
Procedure, shortened: as §2

S. aureus = assay: Effect of BSA on antimicrobial activity (S. aureus microdilution assay); type: cell-based, Staphylococcus aureus; settings: compound at MIC90 6.25 µM
Description: The effect of bovine serum albumin (BSA) on antimicrobial activity was assessed by using the S. aureus microdilution assay in a similar manner as described above, but with increasing concentrations of BSA, ranging from 0.023 nM to 25 µM [23].
As described above, the antimicrobial activities of betulin derivatives seen in the microdilution assay were not detectable in the host-pathogen co-culture assay. Since the assay was performed in cell culture media containing 7.5% of fetal bovine serum, this was suspected to be the reason. Serum is rich in proteins, the most abundant of these being albumin. First, we performed the normal antibacterial assay by replacing the Mueller Hinton II broth with the cell culture media. […] The activity of compound 5 was clearly affected by the added BSA: at 24 nM concentration the activity was reduced by 50% and at concentration 390 nM the activity was completely lost. As a comparison, the concentration of albumin in human serum is typically 36–48 g/L which corresponds to […] concentration. Albumin is capable of interacting with many organic and inorganic molecules and functions as a key controller of intercellular fluxes [43]–[52]. Majority of therapeutic compounds are reversibly bound to plasma proteins, but the degree and nature of the binding differs. […]

[1] = tested on: all microbial strains tested; assay: Primary antimicrobial screening, all strains; type: cell-based; settings: 50 µM
From the text: Gram-negative strains Escherichia coli (ATCC 25922), Enterobacter aerogenes (ATCC 13048) and Pseudomonas aeruginosa (ATCC 27853), Gram-positive strains Staphylococcus aureus (ATCC 25923) and Enterococcus faecalis (ATCC 29212), and fungal strain Candida albicans (ATCC 90028) were obtained from Microbiologics Inc., and used for the antimicrobial screening. Strains were selected according to the guidelines set for clinical laboratories by Clinical and Laboratory Standards Institute [CLSI, formerly National Committee on Clinical Laboratory Standards [22]] and the European Committee on Antimicrobial Susceptibility Testing (EUCAST). Bacterial strains were grown on Mueller Hinton II Agar (MHA) (BBL, BD) and Mueller Hinton II broth (MHB) (BBL, BD), whereas Candida was initiated on Sabouraud Dextrose Agar (SDA) (Difco, BD) plates. Media were prepared into MilliQ water according to manufacturer’s instruction and autoclaved at 121°C for 15 min. Bacteria were plated on MHA plates and incubated at 37°C for 16–18 h. […] Absorbance was measured at 620 nm with Victor plate reader (Wallac 1420, Perkin Elmer) at 0, 4 and 24 h with the bacteria, and at 0, 24 and 48 h with Candida. The antimicrobial activity of the samples was calculated from the absorbance values by comparing to the controls, and expressed as a percentage inhibition of growth. […]

[2] = tested on: S. aureus, E. coli, B. subtilis and Micrococcus luteus; design: method as in PMID 12601674, PMID 7500642, PMID 8590637; settings: ref 19, 33, 34; cited from earlier work
[3] = tested on: S. aureus and E. faecalis; design: method as in PMID 18835348; settings: ref 36; cited from earlier work
[4] = 50 µM, 24 h, inhibition of growth, mean ± SD
[5] = 50 µM, 48 h at 35°C, inhibition of growth, mean ± SD
[6] = 24 h exposure, ATP content, 5% FBS
[7] = Escherichia coli, ATCC25922, 24 h; read-out: Inhibitory effect (%) E. coli ATCC 25922
[8] = Pseudomonas aeruginosa, ATCC27853, 24 h; read-out: Inhibitory effect (%) P. aeruginosa ATCC 27853
[9] = Staphylococcus aureus, 50 µM, 24 h, inhibition of growth, mean ± SD, read-out: Inhibitory effect (%) S. aureus ATCC 25923
[10] = Candida albicans, ATCC90028, 48 h; read-out: Inhibitory effect (%) C. albicans ATCC 90028

C=C(C)[C@@H]1CC[C@]2(COC(=O)c3ccccc3NC(C)=O)CC[C@]3(C)C(CCC4[C@@]5(C)CC[C@H](O)C(C)(C)C5CC[C@]43C)C12 (some centres unmarked) [Compound 5, 28-O-(N-acetylanthraniloyl)betulin]
inhibition at 50 µM (E. aerogenes ATCC 13048): 25.2 ± 2% | inhibition at 50 µM (E. coli ATCC 25922; Escherichia coli, ATCC25922, 24 h, read-out: Inhibitory effect (%) E. coli ATCC 25922): 0.5 ± 3.1% | Inhibitory effect (%) E. faecalis ATCC 29212 (E. faecalis ATCC 29212): 98.5±0.2% | MIC90 (E. faecalis ATCC 29212; Enterococcus faecalis, ATCC29212, read-out: MIC90 against E. faecalis): 6.25 µM (≈ 3.77 µg/mL) | inhibition at 50 µM (P. aeruginosa ATCC 27853; Pseudomonas aeruginosa, ATCC27853, 24 h, read-out: Inhibitory effect (%) P. aeruginosa ATCC 27853): 12.3 ± 2.3% | Inhibitory effect (%) S. aureus ATCC 25923 (S. aureus ATCC 25923; [4]): 100.2±0.1% | inhibition at 50 µM (S. aureus ATCC 25923; Staphylococcus aureus, read-out: Inhibitory effect (%) S. aureus ATCC 25923, 50 µM, 24 h, inhibition of growth, mean ± SD): > 90% | MIC90 (S. aureus ATCC 25923; Staphylococcus aureus, ATCC25923, read-out: MIC90 against S. aureus): 6.25 µM (≈ 3.77 µg/mL) | inhibition at 50 µM (C. albicans ATCC 90028; Candida albicans, ATCC90028, 48 h, read-out: Inhibitory effect (%) C. albicans ATCC 90028): 10 ± 5.2% | cytotoxicity at 24 h, 50 µM (in vitro; 50 µM, 24 h exposure, ATP content, 5% FBS, read-out: Cytotoxicity (%) Huh-7 cells): 30 ± 3% | IC50 at 24 h (in vitro; 24 h exposure, ATP assay, 5% FBS, read-out: IC50 cytotoxicity Huh-7 cells): 56 µM | Effect on Huh-7 cell monolayer in ATP assay (Huh-7 cells; 100 µM, 24 h): completely destroyed the cell monolayer | BSA concentration at which the activity was completely lost (S. aureus): 390 nM | BSA concentration at which the activity was reduced by 50% (S. aureus): 24 nM

C=C(C)C1CCC2(COC(C)=O)CCC3(C)C(CCC4C5(C)CCC(OC(C)=O)C(C)(C)C5CCC43C)C12 (centres unmarked) [Compound 14]
Inhibitory effect (%) E. aerogenes ATCC 13048 (E. aerogenes ATCC 13048; [4]): 8.1±9.0% | Inhibitory effect (%) E. coli ATCC 25922 (E. coli ATCC 25922; [4]): -1.8±2.1% | Inhibitory effect (%) E. faecalis ATCC 29212 (E. faecalis ATCC 29212): 22.8±17.5% | Inhibitory effect (%) P. aeruginosa ATCC 27853 (P. aeruginosa ATCC 27853; [4]): 3.9±0.6% | Inhibitory effect (%) S. aureus ATCC 25923 (S. aureus ATCC 25923; [4]): 13.8±3.2% | Inhibitory effect (%) C. albicans ATCC 90028 (C. albicans ATCC 90028; [5]): -1.1±18.3% | Cytotoxicity (%) Huh-7 cells (Huh-7 cells; [6]): -11.1±3.8% | Activity against all microbial strains tested [1]: inactive

C=C(C)[C@@H]1CC[C@]2(C=O)CC[C@]3(C)C(CCC4[C@@]5(C)CC[C@H](O)C(C)(C)C5CC[C@]43C)C12 (some centres unmarked) [Compound 18, betulinic aldehyde]
inhibition at 50 µM (E. aerogenes ATCC 13048; [4]): 13.5 ± 2.6% | inhibition at 50 µM (E. coli ATCC 25922; [7]): 2.7 ± 2.4% | inhibition at 50 µM (E. faecalis ATCC 29212; Enterococcus faecalis): 39.6 ± 8% | inhibition at 50 µM (P. aeruginosa ATCC 27853; [8]): 3.9 ± 0.6% | inhibition at 50 µM (S. aureus ATCC 25923; [9]): -35.5% | inhibition at 50 µM (C. albicans ATCC 90028; [10]): 6.9 ± 8.1% | IC50 at 24 h (in vitro): 47 µM | cytotoxicity at 24 h, 50 µM (in vitro; Cytotoxicity (%) Huh-7 cells): 61% | Cytotoxicity (%) Huh-7 cells (Huh-7 cells; human, 24 h): 61.3±9.5%

C=C(C)[C@@H]1CC[C@]2(C(=O)O)CC[C@]3(C)[C@H](CC[C@@H]4[C@@]5(C)CC[C@H](O)C(C)(C)[C@@H]5CC[C@]43C)[C@@H]12 [Compound 19, betulinic acid]
Inhibitory effect (%) E. aerogenes ATCC 13048 (E. aerogenes ATCC 13048; [4]): 38.2±3.0% | inhibition at 50 µM (E. aerogenes ATCC 13048; [4]): 38% | inhibition at 50 µM (E. coli ATCC 25922; [7]): 20.2 ± 6.1% | Inhibitory effect (%) E. faecalis ATCC 29212 (E. faecalis ATCC 29212): 55.9±5.0% | inhibition at 50 µM (E. faecalis ATCC 29212; Enterococcus faecalis): 56% | inhibition at 50 µM (P. aeruginosa ATCC 27853; [8]): 6.7 ± 1.4% | inhibition at 50 µM (S. aureus ATCC 25923; [9]): 22.8 ± 5.4% | Inhibitory effect (%) C. albicans ATCC 90028 (C. albicans ATCC 90028; [5]): inactive | inhibition at 50 µM (C. albicans ATCC 90028; [10]): 21.6 ± 2.6% | cytotoxicity at 24 h, 50 µM (in vitro; Huh-7 cells, 50 µM, 24 h exposure, ATP content, 5% FBS, read-out: Cytotoxicity (%) Huh-7 cells): 30% | Cytotoxicity (%) Huh-7 cells (Huh-7 cells; [6]): 31.6±15.7% | Activity against S. aureus, E. coli, B. subtilis and Micrococcus luteus [2]: inactive | MIC against S. aureus and E. faecalis [3]: > 256 µg/mL
